The record followed here is ChEMBL document CHEMBL5052835, “Slc26a3 inhibitors and use thereof” (2021).

Test [1] deals with Mus musculus. The test is described as follows: In vivo inhibition of slc26a3 in loperamide-induced constipation model of cystic fibrosis mouse at 5 mg/kg, po assessed as reduction in stool weight. The class given is functional, organism-based.
Test [2] concerns the target T1, Solute carrier family 26 member 6 (Mus musculus) (UniProt Q8CIW6).
T1 sequence (whole entry): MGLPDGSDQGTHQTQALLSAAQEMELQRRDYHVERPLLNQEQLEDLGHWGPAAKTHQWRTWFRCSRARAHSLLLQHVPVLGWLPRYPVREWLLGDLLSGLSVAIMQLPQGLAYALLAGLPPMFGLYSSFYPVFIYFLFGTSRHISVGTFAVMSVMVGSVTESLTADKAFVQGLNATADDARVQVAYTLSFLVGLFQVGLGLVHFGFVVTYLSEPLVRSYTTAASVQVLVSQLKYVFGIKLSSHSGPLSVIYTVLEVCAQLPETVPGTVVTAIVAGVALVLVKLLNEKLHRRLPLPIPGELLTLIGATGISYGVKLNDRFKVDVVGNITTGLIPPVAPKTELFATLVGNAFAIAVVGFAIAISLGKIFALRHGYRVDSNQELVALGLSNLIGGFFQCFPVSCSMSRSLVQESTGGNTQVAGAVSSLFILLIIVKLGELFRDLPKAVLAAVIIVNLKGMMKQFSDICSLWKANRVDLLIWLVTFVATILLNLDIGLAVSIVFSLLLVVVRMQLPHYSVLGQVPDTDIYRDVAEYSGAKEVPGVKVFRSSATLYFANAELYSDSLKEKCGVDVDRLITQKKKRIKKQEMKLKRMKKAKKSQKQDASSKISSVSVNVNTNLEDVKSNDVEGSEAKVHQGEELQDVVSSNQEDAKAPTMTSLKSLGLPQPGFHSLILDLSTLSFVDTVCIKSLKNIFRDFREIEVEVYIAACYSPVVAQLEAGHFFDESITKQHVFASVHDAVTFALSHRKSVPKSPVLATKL
The test is described as follows: Inhibition of mouse Slc26a6-mediated Cl-/ I- exchange at 10 uM measured by cell-based fluorescence assay.

Test [3] concerns Mus musculus. Put plainly: In vivo inhibition of slc26a3 in loperamide-induced constipation model of cystic fibrosis mouse at 5 mg/kg, po assessed as reduction in pellet number. The format is functional, organism-based.
In the next test the test system is Colon. Put plainly: Inhibition of fluid absorption in distal colonic loop isolated from female CD-1 mouse at 10 uM assessed as effect on reduction in loop weight/length ratio in presence of 10 microM tenapanor. The class given is functional, tissue-based.
Test [4] relates to Mus musculus. Put plainly: Inhibition of oxalate absorption in high oxalate and low calcium diet-induced oxalate nephropathy model of mouse at 5 mg/kg, po assessed as reduction in kidney damage. The class given is functional, organism-based.
Test [5] deals with Mus musculus. The test is described as follows: Inhibition of oxalate absorption in sodium oxalate-induced acute hyperoxaluria mouse model at 5 mg/kg, po. The class given is functional, organism-based.
Test [6] has as its system Mus musculus. Put plainly: Inhibition of oxalate absorption in high oxalate and low calcium diet-induced oxalate nephropathy model of mouse at 5 mg/kg, po assessed as reduction in urine sediment. The format is functional, organism-based.
The target of the next test is T2, Pendrin (Mus musculus) (UniProt Q9R155).
T2 sequence (whole entry): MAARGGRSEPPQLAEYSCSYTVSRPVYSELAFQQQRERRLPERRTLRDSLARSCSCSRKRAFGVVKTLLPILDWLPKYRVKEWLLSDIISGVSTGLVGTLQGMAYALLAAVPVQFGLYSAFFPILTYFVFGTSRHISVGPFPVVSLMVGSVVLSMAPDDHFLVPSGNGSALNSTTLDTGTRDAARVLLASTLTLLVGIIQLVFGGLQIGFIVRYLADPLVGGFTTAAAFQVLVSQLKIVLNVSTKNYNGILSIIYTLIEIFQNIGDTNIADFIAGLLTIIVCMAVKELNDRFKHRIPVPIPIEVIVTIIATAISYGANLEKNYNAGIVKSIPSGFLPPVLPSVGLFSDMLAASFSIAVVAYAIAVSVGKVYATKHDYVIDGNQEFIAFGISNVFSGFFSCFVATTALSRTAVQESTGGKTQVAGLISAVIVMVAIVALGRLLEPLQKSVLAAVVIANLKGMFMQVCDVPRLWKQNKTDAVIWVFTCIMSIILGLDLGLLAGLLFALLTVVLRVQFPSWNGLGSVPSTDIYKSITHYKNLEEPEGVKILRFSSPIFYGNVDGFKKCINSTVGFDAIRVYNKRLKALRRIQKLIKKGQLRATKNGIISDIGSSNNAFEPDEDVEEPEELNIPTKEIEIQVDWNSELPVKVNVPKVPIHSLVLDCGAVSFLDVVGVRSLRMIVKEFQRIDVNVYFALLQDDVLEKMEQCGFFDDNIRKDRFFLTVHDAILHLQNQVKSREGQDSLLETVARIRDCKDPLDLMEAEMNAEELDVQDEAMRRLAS
Put plainly: Inhibition of mouse Slc26a4-mediated Cl-/ I- exchange at 10 uM measured by cell-based fluorescence assay.

Active and inactive are the calls of the source. No cut-off for these calls is given here.

`Cc1c(CC(=O)O)c(=O)oc2c(C)c(OCc3cccc(Br)c3)ccc12`: the inhibition entry with Mus musculus [1], in the test with Mus musculus [3], in the test on Colon, with Mus musculus [4], with Mus musculus [5] and in the test on Mus musculus [6] was “Active” throughout. The inhibition result (in test [2]; on Pendrin (Mus musculus)) was “inactive” each time.
